Laboratory results published in patent US20230165251A1, “SUBSTITUTED TOLYL FUNGICIDES AND THEIR MIXTURES” (FMC Corporation, priority 2020, published 2023).
Like-named read-outs stand apart in the source and are kept apart here.

Experiments:
Format in all cases: in vivo
Phakopsora pachyrhizi [1] = assay: Test G: Compound 41 or 63 alone and in mixtures on soybean seedlings, Asian soybean rust, Colby synergy; details: for pest or weed control at 0.346 ppm: Compound 41 0.346 ppm alone; for pest or weed control at 0.764 ppm: Compound 41 0.764 ppm alone
Description: The general protocol for preparing test compositions for TEST G was as follows: Compound 41, Compound 63, N-(2,2,2-trifluoroethyl)-2-[[4-[5-(trifluoromethyl)-1,2,4-oxadiazol-3-yl]phenyl]methyl]-4-oxazolecarboxamide (b54.11a), ethyl 1-[[4-[[(1Z)-2-ethoxy-3,3,3-trifluoro-1-propen-1-yl]oxy]phenyl]methyl]-1H-pyrazole-4-carboxylate (b54.11c), ethyl 1-[[4-[[2-(trifluoromethyl)-1,3-dioxolan-2-yl]methoxy]phenyl]methyl]-1H-pyrazole-4-carboxylate (b54.11d), azoxystrobin, benzovindiflupyr, bixafen, chlorothalonil, cyproconazole, epoxiconazole, fenpropidin, fenpropimorph, fluindapyr, flutriafol, fluxapyroxad, inpyrfluxam, picoxystrobin, prothioconazole, pydiflumetofen, tebuconazole and trifloxystrobin were obtained as unformulated, technical-grade materials. Copper hydroxide and mancozeb was obtained as a formulated product marketed under the trademarks KOCIDE 3000 and MANZATE, respectively. Unformulated materials were first dissolved in acetone and then suspended at the desired concentration (in ppm) in acetone and purified water (50/50 mix by volume) containing 250 ppm of the surfactant Trem® 014 (polyhydric alcohol esters). Formulated materials were dispersed in sufficient water to give the desired concentration, and neither organic solvent nor surfactant was added to the suspension. The resulting test mixtures were then used in TEST G. The tests were run on four individual plants and the results reported as the mean average of the four plants.
The presence of a synergistic effect between two active ingredients was established with the aid of the Colby equation (see Colby, S. R. “Calculating Synergistic and Antagonistic Responses of Herbicide Combinations”, Weeds, (1967), 15, 20-22):
Using the method of Colby, the presence of a synergistic interaction between two active ingredients is established by first calculating the predicted activity, p, of the mixture based on activities of the two components applied alone. If p is lower than the experimentally established effect, synergism has occurred. In the equation above, A is the fungicidal activity in percentage control of one component applied alone at rate x. The B term is the fungicidal activity in percentage control of the second component applied at rate y. The equation estimates p, the expected fungicidal activity of the mixture of A at rate x with B at rate y if their effects are strictly additive and no interaction has occurred.
The test mixture was sprayed to the point of run-off on soybean seedlings. The following day the seedlings were inoculated with a spore suspension of Phakopsora pachyrhizi (the causal agent of Asian soybean rust) and incubated in a saturated atmosphere at 22° C. for 24 h and then moved to a growth chamber at 22° C. for 8 days, after which time visual disease ratings were made.
Results for TEST G are given below in Tables B-1 through J-1 for Compound 41, and Tables B-2 through J-2 for Compound 63. Each table corresponds to a set of evaluations performed together at the same time. In each table, a rating of 100 indicates 100% disease control and a rating of 0 indicates no disease control (relative to the controls). Columns labeled “Obsd” indicate the average of results observed from test run on four individual plants. Columns labeled “Exp” indicate the expected value for each treatment mixture using the Colby equation.

[2] = test system: Puccinia recondita f. sp. tritici; assay: Test B: preventive spray on wheat seedlings, wheat leaf rust; details: Rate 10 ppm
Description: (§1) General protocol for preparing test suspensions for Tests A-F: the test compounds were first dissolved in acetone in an amount equal to 3% of the final volume and then suspended at the desired concentration (in ppm) in acetone and purified water (50/50 mix by volume) containing 250 ppm of the surfactant PEG400 (polyhydric alcohol esters). The resulting test suspensions were then used in Tests A-F.
The test solution was sprayed to the point of run-off on wheat seedlings. The following day the seedlings were inoculated with a spore suspension of Puccinia recondita f. sp. tritici (the causal agent of wheat leaf rust) and incubated in a saturated atmosphere at 20° C. for 24 h, and then moved to a growth chamber at 20° C. for 7 days, after which time disease ratings were made.
(§2) A rating of 100 indicates 100% disease control and a rating of 0 indicates no disease control (relative to the controls). A dash (-) indicates the compound was not tested.

Phakopsora pachyrhizi [3] = assay: Test D: preventive spray on soybean seedlings, Asian soybean rust; details: Rate 10 ppm
Description: as §1
The test solution was sprayed to the point of run-off on soybean seedlings. The following day the seedlings were inoculated with a spore suspension of Phakopsora pachyrhizi (the causal agent of Asian soybean rust) and incubated in a saturated atmosphere at 22° C. for 24 h and then moved to a growth chamber at 22° C. for 8 days, after which time visual disease ratings were made.
as §2

[4] = Phakopsora pachyrhizi, Table B-1, read-out: Test G Obsd
[5] = Phakopsora pachyrhizi, Table C-1, read-out: Test G Obsd

Row | Structure (SMILES) | Test B disease control rating [2] [%] | Test D disease control rating (Phakopsora pachyrhizi [3]) [%] | further results
1 | Cn1cc(C(=O)Nc2cccc3c2[C@@H]2CC[C@H]3C2=C(Cl)Cl)c(C(F)F)n1 (racemic) [Benzovindiflupyr, benzovindiflupyr] |  |  | Test G Obsd (Phakopsora pachyrhizi [1]; benzovindiflupyr alone 0.606 ppm): 67%; Test G Obsd (Phakopsora pachyrhizi [1]; benzovindiflupyr alone 0.980 ppm): 67%
2 | Fc1ccc([C@]2(Cn3cncn3)O[C@H]2c2ccccc2Cl)cc1 (racemic) [Epoxiconazole, epoxiconazole] |  |  | pest or weed control at 46.795 ppm (Phakopsora pachyrhizi [1]; Phakopsora pachyrhizi, epoxiconazole alone 46.795 ppm, read-out: Test G Obsd): 23%; pest or weed control at 89.631 ppm (Phakopsora pachyrhizi [1]; Phakopsora pachyrhizi, epoxiconazole alone 89.631 ppm, read-out: Test G Obsd): 70%
3 | O=C(NCC(F)(F)F)c1coc(Cc2ccc(-c3noc(C(F)(F)F)n3)cc2)n1 [(b54.11a)] |  |  | Test G Obsd (Phakopsora pachyrhizi [1]; Table B-1, (b54.11a) 0.471 ppm alone): 59%; Test G Obsd (Phakopsora pachyrhizi [1]; Table B-1, (b54.11a) 0.764 ppm alone): 75%
4 | CO/C=C(/C(=O)OC)c1ccccc1Oc1cc(Oc2ccccc2C#N)ncn1 [Azoxystrobin, azoxystrobin] |  |  | Test G Obsd (Phakopsora pachyrhizi [1]; azoxystrobin alone 95.873 ppm): 70%; Test G Obsd (Phakopsora pachyrhizi [1]; azoxystrobin alone 169.226 ppm): 90%
5 | Cn1cc(C(=O)Nc2ccc(F)cc2-c2ccc(Cl)c(Cl)c2)c(C(F)F)n1 [Bixafen, bixafen] |  |  | Test G Obsd (Phakopsora pachyrhizi [1]; Table C-1, bixafen 11.327 ppm alone): 54%; Test G Obsd (Phakopsora pachyrhizi [1]; Table C-1, bixafen 19.525 ppm alone): 55%; Test G Obsd (Phakopsora pachyrhizi [1]; Table C-2, bixafen 11.327 ppm alone): 54%; Test G Obsd (Phakopsora pachyrhizi [1]; Table C-2, bixafen 19.525 ppm alone): 55%
6 | N#Cc1c(Cl)c(Cl)c(Cl)c(C#N)c1Cl [Chlorothalonil, chlorothalonil] |  |  | pest or weed control at 138.129 ppm (Phakopsora pachyrhizi [1]; Phakopsora pachyrhizi, chlorothalonil alone 138.129 ppm, read-out: Test G Obsd): 59%; pest or weed control at 222.081 ppm (Phakopsora pachyrhizi [1]; Phakopsora pachyrhizi, chlorothalonil alone 222.081 ppm, read-out: Test G Obsd): 85%
7 | COC(=O)NCc1cc(-c2ccn(-c3c(F)cc(C4CC4)cc3F)n2)ccc1C [Compound 41, methyl N-[[5-[1-(4-cyclopropyl-2,6-difluorophenyl)-1H-pyrazol-3-yl]-2-methylphenyl]methyl]carbamate] |  |  | pest or weed control at 0.346 ppm (Phakopsora pachyrhizi [1]; [4]): 29%; pest or weed control at 0.764 ppm (Phakopsora pachyrhizi [1]; [4]): 62%; pest or weed control at 0.346 ppm (Phakopsora pachyrhizi [1]; [5]): 19%; pest or weed control at 0.764 ppm (Phakopsora pachyrhizi [1]; [5]): 45%
8 | CC(C1CC1)C(O)(Cn1cncn1)c1ccc(Cl)cc1 (stereo not shown) [Cyproconazole, cyproconazole] |  |  | pest or weed control at 37.333 ppm (Phakopsora pachyrhizi [1]; Phakopsora pachyrhizi, cyproconazole alone 37.333 ppm, read-out: Test G Obsd): 44%; pest or weed control at 64.883 ppm (Phakopsora pachyrhizi [1]; Phakopsora pachyrhizi, cyproconazole alone 64.883 ppm, read-out: Test G Obsd): 68%
9 | CC(Cc1ccc(C(C)(C)C)cc1)CN1CCCCC1 (stereo not shown) [Fenpropidin, fenpropidin] |  |  | pest or weed control at 78.393 ppm (Phakopsora pachyrhizi [1]; Phakopsora pachyrhizi, fenpropidin alone 78.393 ppm, read-out: Test G Obsd): 45%; pest or weed control at 161.74 ppm (Phakopsora pachyrhizi [1]; Phakopsora pachyrhizi, fenpropidin alone 161.740 ppm, read-out: Test G Obsd): 68%
10 | CC(Cc1ccc(C(C)(C)C)cc1)CN1C[C@@H](C)O[C@@H](C)C1 (stereo partly shown) [Fenpropimorph, fenpropimorph] |  |  | pest or weed control at 242.823 ppm (Phakopsora pachyrhizi [1]; Phakopsora pachyrhizi, fenpropimorph alone 242.823 ppm, read-out: Test G Obsd): 33%; pest or weed control at 458.587 ppm (Phakopsora pachyrhizi [1]; Phakopsora pachyrhizi, fenpropimorph alone 458.587 ppm, read-out: Test G Obsd): 44%
11 | COC(=O)NCc1cc(-c2cn(-c3c(Cl)cc(OC)cc3OC)nn2)ccc1C [compound 120] | 0 | 0 | 
12 | COC(=O)NCc1cc(-c2cn(-c3c(Cl)cc(OC)cc3Cl)nn2)ccc1C [compound 123] | 0 | 0 | 
13 | COC(=O)NCc1cc(-c2cn(-c3c(C)cc(OC)cc3C)nn2)ccc1C [compound 124] | 0 | 0 | 
14 | COC(=O)NCc1cc(-c2cn(-c3c(F)cc(I)cc3F)nn2)ccc1C [compound 125] | 68 | 0 | 
15 | COC(=O)NCc1cc(-c2cn(-c3c(F)cc(Br)cc3F)nn2)ccc1C [compound 126] | 57 | 0 | 
16 | COC(=O)NCc1cc(-c2cn(-c3c(OC)cc(OC)cc3OC)nn2)ccc1C [compound 127] | 0 | 0 | 
17 | COC(=O)NCc1cc(-c2cn(-c3c(Br)cc(OC)cc3Br)nn2)ccc1C [compound 128] | 0 | 0 | 
18 | COC(=O)NCc1cc(-c2cn(-c3c(Br)cc(OC)cc3[N+](=O)[O-])nn2)ccc1C [compound 129] | 0 | 0 | 
19 | COC(=O)NCc1cc(-c2cn(-c3c(F)cc(OC)cc3F)nn2)ccc1C [compound 130] | 68 | 0 | 
20 | COC(=O)NCc1cc(-c2ccn(-c3c(F)cc(C4OCCO4)cc3F)n2)ccc1C [compound 133] | 99 | 100 | 
21 | COC(=O)NCc1cc(-c2ccn(-c3c(Br)cc(I)cc3Br)n2)ccc1C [compound 136] | 19 | 59 | 
22 | CCc1cc(F)c(-n2ccc(-c3ccc(C)c(CNC(=O)OC)c3)n2)c(F)c1 [compound 144] | 100 | 100 | 
23 | CCCc1cc(F)c(-n2ccc(-c3ccc(C)c(CNC(=O)OC)c3)n2)c(F)c1 [compound 145] | 100 | 100 | 
24 | C=Cc1cc(F)c(-n2ccc(-c3ccc(C)c(CNC(=O)OC)c3)n2)c(F)c1 [compound 146] | 100 | 100 | 
25 | CC=Cc1cc(F)c(-n2ccc(-c3ccc(C)c(CNC(=O)OC)c3)n2)c(F)c1 [compound 147] | 99 | 100 | 
26 | COC(=O)NCc1cc(-c2ccn(-c3c(F)cc(N4CCN(C)CC4)cc3F)n2)ccc1C [compound 148] | 0 | 0 | 
27 | COC(=O)NCc1cc(-c2ccn(-c3c(F)cc(N4CCOCC4)cc3F)n2)ccc1C [compound 149] | 83 | 99 | 
28 | COC(=O)NCc1cc(-c2ccn(-c3c(F)cc(N4CCCC4)cc3F)n2)ccc1C [compound 150] | 68 | 0 | 
29 | COC(=O)NCc1cc(-c2ccn(-c3c(F)cc(N4CCCCC4)cc3F)n2)ccc1C [compound 151] | 68 | 19 | 
30 | COC(=O)NCc1cc(-c2ccn(-c3c(F)cc(N(C)C)cc3F)n2)ccc1C [compound 152] | 98 | 99 | 
